The series can be described thus: In-vitro digestion pH titration. The conditions noted are these: FIG. 9. The format is in vitro ADME. The source says: The digestion pH titration curves for both compositions, as well as control samples F-11 and the Miglyol 808 oil are shown in FIG. 9.

For `CCCCCCCC(=O)OCC(COC(=O)CCCCCCC)OC(=O)CCCCCCC` [Miglyol 808 oil, caprylic triglyceride], the “digestion pH titration curve” value is “sigmoidal titration curve, and is slower to reach the endpoint”.
